Patent US9834558B2, “Substituted bridged urea analogs as sirtuin modulators” (GLAXOSMITHKLINE LLC, priority 2013, dated 2017)
Where a name gives a salt, the structure may show the parent alone. One block for each compound: values may come before it.

Biological target: T1, SIRT1 (Homo sapiens, UniProt Q96EB6)
T1 sequence (Q96EB6 1-747): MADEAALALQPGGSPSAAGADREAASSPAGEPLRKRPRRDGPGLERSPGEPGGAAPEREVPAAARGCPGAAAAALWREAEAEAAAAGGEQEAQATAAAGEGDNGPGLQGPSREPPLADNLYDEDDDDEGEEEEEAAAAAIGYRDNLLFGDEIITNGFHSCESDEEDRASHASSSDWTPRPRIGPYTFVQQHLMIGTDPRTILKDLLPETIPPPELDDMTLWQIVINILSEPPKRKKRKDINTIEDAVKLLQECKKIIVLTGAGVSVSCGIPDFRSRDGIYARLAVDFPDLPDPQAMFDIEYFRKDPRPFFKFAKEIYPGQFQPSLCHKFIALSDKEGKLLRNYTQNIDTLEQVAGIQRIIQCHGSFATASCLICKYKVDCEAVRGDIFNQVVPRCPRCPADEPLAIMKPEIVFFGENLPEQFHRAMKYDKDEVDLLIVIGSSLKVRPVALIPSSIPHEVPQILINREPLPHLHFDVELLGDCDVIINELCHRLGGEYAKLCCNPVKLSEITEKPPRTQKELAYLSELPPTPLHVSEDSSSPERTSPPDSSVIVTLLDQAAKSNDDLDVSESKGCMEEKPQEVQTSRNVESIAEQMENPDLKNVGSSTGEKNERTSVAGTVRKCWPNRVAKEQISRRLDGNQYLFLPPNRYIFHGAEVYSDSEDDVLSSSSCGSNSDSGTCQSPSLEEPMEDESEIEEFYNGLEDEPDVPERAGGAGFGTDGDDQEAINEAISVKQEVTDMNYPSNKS
Test: Trp mass spectrometry assay of SIRT1 activation
Assay type: biochemical
Settings: for TRP Activity (EC1.5) / Emax: Trp peptide assay; for TRP Activity (EC1.5): EC1.5 = concentration that results in 150% activation of SIRT1; for Emax: maximum activity relative to control (100%), read-out: TRP MAX RESP (percent maximum fold activation)
Method in brief: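 N-terminal His-tagged human SIRT1 (10 nM, E. coli BL21(DE3)) with 0.5 μM Ac-RHKK(Ac)W-NH2 peptide and 120 μM βNAD+, 25 min at 25 °C in HEPES pH 7.5, formic acid stop. OAADPR or deacetylated peptide quantified by mass spectrometry; EC1.5 (50% activity increase over control) and Percent Maximum Activation reported.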

[1] = concentration giving 150% activation of SIRT1, Trp peptide substrate
[2] = Trp mass spectrometry assay, EC1.5 = concentration of test compound that results in 150% activation of SIRT1
[3] = Trp mass spectrometry assay, concentration of test compound giving 150% activation of SIRT1

Compound: NCCCCCC(=O)NCc1cccc(NC(=O)N2c3nc(-c4cccc(C(F)(F)F)c4)ccc3N3CC[C@H]2C3)c1 [Example 758]
- Tryp AVG EC1.5 (μM) [1]: A (A (EC1.5<1 μM))

Compound: CC(C)(C)OC(=O)NCCCc1ccc(NC(=O)N2c3nc(-c4cccc(C(F)(F)F)c4)ccc3N3CCC[C@H]2C3)cc1-c1cnco1 [Example 752]
- Tryp AVG EC1.5 (μM) [1]: A (A (EC1.5<1 μM))

Compound: O=C(Nc1cnccn1)N1c2nc(-c3cccc(Cl)c3)ccc2N2C[C@@H](O)[C@H]1C2 [Example 678]
- Tryp AVG EC1.5 (μM) [1]: C (C (EC1.5>25 μM))

Compound: O=C(Nc1ccncn1)N1c2nc(-c3cccc(C(F)(F)F)n3)ccc2N2CC[C@H]1C2 [Example 337]
- Tryp AVG EC1.5 (μM) [3]: B (B (EC1.5 1-25 μM))

Compound: N#Cc1cncc(-c2ccc3c(n2)N(C(=O)Nc2cnccn2)[C@H]2CCN3C2)c1 [Example 459]
- Tryp AVG EC1.5 (μM) [2]: A (A (EC1.5<1 μM))

Compound: Cc1cc(-c2ccc3c(n2)N(C(=O)Nc2cncc(-c4cnco4)c2)[C@H]2CCN3C2)ccn1 [Example 748]
- Tryp AVG EC1.5 (μM) [1]: A (A (EC1.5<1 μM))

Compound: O=C(Nc1cncc(-c2cnco2)c1)N1c2nc(-c3cncc(F)c3)ccc2N2CC[C@H]1C2 [Example 716]
- Tryp AVG EC1.5 (μM) [1]: B (B (EC1.5 1-25 μM))

Compound: Cc1cc(-c2ccc3c(n2)N(C(=O)N2CCO[C@@H](C)C2)[C@H]2CCN3C2)ccn1 [(9S)-8-{[(2S)-2-methylmorpholin-4-yl]carbonyl}-5-(2-methylpyridin-4-yl)-1,6,8-triazatricyclo[7.2.1.0 {2,7}]dodeca-2(7),3,5-triene hydrochloride]
- TRP Activity (EC1.5): C (C (EC1.5>25 μM))
- Emax: < 150%

Compound: O=C(Nc1cccc(-c2cnco2)c1)N1c2nc(-c3cncc(F)c3)ccc2N2CC[C@H]1C2 [Example 722]
- Tryp AVG EC1.5 (μM) [1]: A (A (EC1.5<1 μM))

Compound: O=C(Nc1ccncn1)N1c2nc(-c3cncc(Cl)c3)ccc2N2CCC1CC2 [Example 576]
- Tryp AVG EC1.5 (μM) [2]: B (B (EC1.5 1-25 μM))

Compound: O=C(Nc1cccnc1)N1c2nc(-c3cncc(C(F)(F)F)c3)ccc2N2C[C@@H](O)[C@H]1C2 [Example 705]
- Tryp AVG EC1.5 (μM) [1]: B (B (EC1.5 1-25 μM))

Compound: O=C(Nc1cccc(-c2cnco2)c1)N1c2cc(-c3cccc(C(F)(F)F)c3)ccc2N2CC[C@H]1C2 [Example 786]
- Tryp AVG EC1.5 (μM) [1]: B (B (EC1.5 1-25 μM))

Compound: CN(C)c1ccc(-c2ccc3c(n2)N(C(=O)Nc2cnccn2)[C@H]2CCN3C2)cn1 [Example 458]
- Tryp AVG EC1.5 (μM) [2]: B (B (EC1.5 1-25 μM))

Compound: COc1cc(NC(=O)N2c3nc(-c4cncc(C(F)(F)F)c4)ccc3N3C[C@@H](O)[C@H]2C3)nc(OC)n1 [Example 704]
- Tryp AVG EC1.5 (μM) [1]: B (B (EC1.5 1-25 μM))

Compound: Cc1nc(NC(=O)N2c3nc(-c4cncc(C(F)(F)F)c4)ccc3N3CCC[C@H]2C3)sc1C [Example 427]
- Tryp AVG EC1.5 (μM) [2]: A (A (EC1.5<1 μM))

Compound: Cn1nccc1-c1ccc2c(n1)N(C(=O)Nc1cnccn1)[C@H]1CCN2C1 [Example 414]
- Tryp AVG EC1.5 (μM) [3]: B (B (EC1.5 1-25 μM))

Compound: O=C(Nc1cc(-c2cnco2)cc(-c2cnco2)c1)N1c2nc(-c3cccc(C(F)(F)F)c3)ccc2N2CC[C@H]1C2 [Example 743]
- Tryp AVG EC1.5 (μM) [1]: A (A (EC1.5<1 μM))

Compound: Cc1cncc(NC(=O)N2c3nc(-c4ccnc(C)c4)ccc3N3CC[C@H]2C3)c1 [(9S)-N-(5-methylpyridin-3-yl)-5-(2-methylpyridin-4-yl)-1,6,8-triazatricyclo[7.2.1.0 {2,7}]dodeca-2(7),3,5-triene-8-carboxamide]
- TRP Activity (EC1.5): B (B (EC1.5 1-25 μM))
- Emax: > 150%

Further lines, results first:

- TRP Activity (EC1.5): A (A (EC1.5<1 μM))
- Emax: > 150%
Compound: O=C(Nc1cnccn1)N1c2nc(-c3ccnc(C4CC4)c3)ccc2N2CC[C@H]1C2 [(9S)-5-(2-cyclopropylpyridin-4-yl)-N-(pyrazin-2-yl)-1,6,8-triazatricyclo[7.2.1.0 {2,7}]dodeca-2,4,6-triene-8-carboxamide]

- Tryp AVG EC1.5 (μM) [2]: B (B (EC1.5 1-25 μM))
Compound: COc1cc(NC(=O)N2c3nc(-c4ccnc(N5CC[C@H](F)C5)c4)ccc3N3CC[C@H]2C3)ncn1 [Example 437]

- Tryp AVG EC1.5 (μM) [2]: B (B (EC1.5 1-25 μM))
Compound: Cc1ccc(-c2ccc3c(n2)N(C(=O)Nc2cncc(F)c2)[C@H]2CCCN3C2)cn1 [Example 477]

- Tryp AVG EC1.5 (μM) [2]: A (A (EC1.5<1 μM))
Compound: O=C(Nc1ccc(F)cn1)N1c2nc(-c3ccnc(N4CC[C@@H](F)C4)c3)ccc2N2CC[C@H]1C2 [Example 474]

- Tryp AVG EC1.5 (μM) [1]: A (A (EC1.5<1 μM))
Compound: O=C(Nc1cccc(-c2cccnc2)n1)N1c2nc(-c3cccc(C(F)(F)F)c3)ccc2N2CC[C@H]1C2 [Example 655]

- Tryp AVG EC1.5 (μM) [2]: B (B (EC1.5 1-25 μM))
Compound: COc1cc(NC(=O)N2c3nc(-c4cccc(N5CCOCC5)c4)ccc3N3CCC[C@H]2C3)ncn1 [Example 528]

- TRP Activity (EC1.5): B (B (EC1.5 1-25 μM))
- Emax: > 150%
Compound: O=C(NC1CCOCC1)c1ccc2c(n1)N(C(=O)Nc1ccccn1)[C@H]1CCN2C1 [(9S)-5-N-(oxan-4-yl)-8-N-(pyridin-2-yl)-1,6,8-triazatricyclo[7.2.1.0 {2,7}]dodeca-2(7),3,5-triene-5,8-dicarboxamide]

- Tryp AVG EC1.5 (μM) [3]: A (A (EC1.5<1 μM))
Compound: O=C(Nc1cccnn1)N1c2nc(-c3cncc(C(F)(F)F)c3)ccc2N2CCC[C@H]1C2 [Example 412]

- Tryp AVG EC1.5 (μM) [1]: A (A (EC1.5<1 μM))
Compound: CCCn1cc(-c2cccc(NC(=O)N3c4nc(-c5cccc(C(F)(F)F)c5)ccc4N4CC[C@H]3C4)n2)cn1 [Example 656]

- Tryp AVG EC1.5 (μM) [2]: B (B (EC1.5 1-25 μM))
Compound: O=C(Nc1ccccn1)N1c2nc(-c3cncc(F)c3)ccc2N2CCC1CC2 [Example 570]

- TRP Activity (EC1.5): B (B (EC1.5 1-25 μM))
- Emax: > 150%
Compound: Cc1ccc(-c2ccc3c(n2)N(C(=O)Nc2cccc4cnccc24)[C@H]2CCN3C2)cn1 [(9S)-N-(isoquinolin-5-yl)-5-(6-methylpyridin-3-yl)-1,6,8-triazatricyclo[7.2.1.0 {2,7}]dodeca-2,4,6-triene-8-carboxamide]

- Tryp AVG EC1.5 (μM) [2]: B (B (EC1.5 1-25 μM))
Compound: O=C(Nc1cccnn1)N1c2nc(-c3cccc(N4CCOCC4)c3)ccc2N2CCC[C@H]1C2 [Example 539]

- Tryp AVG EC1.5 (μM) [3]: A (A (EC1.5<1 μM))
Compound: N#Cc1cncc(-c2ccc3c(n2)N(C(=O)Nc2ccccn2)[C@H]2CCN3C2)c1 [Example 373]

- Tryp AVG EC1.5 (μM) [2]: B (B (EC1.5 1-25 μM))
Compound: COc1cc(NC(=O)N2c3nc(-c4cccc(Cl)c4)ccc3N3CCC2CC3)ncn1 [Example 522]

- TRP Activity (EC1.5): B (B (EC1.5 1-25 μM))
- Emax: > 150%
Compound: Cc1cc(-c2ccc3c(n2)N(C(=O)Nc2ccc4c(c2)OCCO4)[C@H]2CCN3C2)ccn1 [(9S)-N-(2,3-dihydro-1,4-benzodioxin-6-yl)-5-(2-methylpyridin-4-yl)-1,6,8-triazatricyclo[7.2.1.0 {2,7}]dodeca-2(7),3,5-triene-8-carboxamide]

- TRP Activity (EC1.5): C (C (EC1.5>25 μM))
- Emax: < 150%
Compound: Cc1cc(-c2ccc3c(n2)N(C(=O)N2CCCC2)[C@H]2CCN3C2)ccn1 [(9S)-5-(2-methylpyridin-4-yl)-8-[(pyrrolidin-1-yl)carbonyl]-1,6,8-triazatricyclo[7.2.1.0 {2,7}]dodeca-2,4,6-triene]

- Tryp AVG EC1.5 (μM) [2]: B (B (EC1.5 1-25 μM))
Compound: Cc1ccncc1-c1ccc2c(n1)N(C(=O)Nc1cccnc1)[C@H]1CCCN2C1 [Example 516]

- TRP Activity (EC1.5): B (B (EC1.5 1-25 μM))
- Emax: > 150%
Compound: O=C(Nc1ccccn1)N1c2nc(N3CCOC(C(F)(F)F)C3)ccc2N2CC[C@H]1C2 (stereo partly drawn) [(9S)-N-(pyridin-2-yl)-5-[2-(trifluoromethyl)morpholin-4-yl]-1,6,8-triazatricyclo[7.2.1.0 {2,7}]dodeca-2(7),3,5-triene-8-carboxamide]

- TRP Activity (EC1.5): B (B (EC1.5 1-25 μM))
- Emax: > 150%
Compound: Cc1ccc(-c2ccc3c(n2)N(C(=O)Nc2cccnc2)[C@H]2CCN3C2)c(C)n1 [(9S)-5-(2,6-dimethylpyridin-3-yl)-N-(pyridin-3-yl)-1,6,8-triazatricyclo[7.2.1.0 {2,7}]dodeca-2(7),3,5-triene-8-carboxamide]

- Tryp AVG EC1.5 (μM) [2]: A (A (EC1.5<1 μM))
Compound: N#Cc1cc(-c2ccc3c(n2)N(C(=O)Nc2cnccn2)[C@H]2CCN3C2)ccc1F [Example 419]

- Tryp AVG EC1.5 (μM) [3]: A (A (EC1.5<1 μM))
Compound: CS(=O)(=O)c1cncc(-c2ccc3c(n2)N(C(=O)Nc2cccnc2)[C@H]2CCCN3C2)c1 [Example 376]

- Tryp AVG EC1.5 (μM) [2]: A (A (EC1.5<1 μM))
Compound: O=C(Nc1cccnc1)N1c2nc(-c3cccc(N4CCOCC4)c3)ccc2N2CCC[C@H]1C2 [Example 538]

- TRP Activity (EC1.5): B (B (EC1.5 1-25 μM))
- Emax: > 150%
Compound: Cn1cc(-c2ccc3c(n2)N(C(=O)Nc2cnccn2)[C@H]2CCN3C2)cn1 [(9S)-5-(1-methyl-1H-pyrazol-4-yl)-N-(pyrazin-2-yl)-1,6,8-triazatricyclo[7.2.1.0 {2,7}]dodeca-2(7),3,5-triene-8-carboxamide]
